Consider four molecules from US20230348376A1 (TEIJIN PHARMA LIMITED, priority 2020, published 2023).

Where two headings read alike, the source gives them in different places.

The subject of data set [1] is rat oligodendrocyte progenitor cells. As to the kind of experiment: Promotive activity of rat oligodendrocyte progenitor cell differentiation-2 (immunostaining of MBP). Conditions: vitamin D derivative 2 μM, T3 30 nM, 4 days. It counts as cell-based. The gist of the method:
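Rat OPCs prepared by shaking in separation medium about 22 h at 37 °C, 200 rpm, and collecting the supernatant.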

Data set [2] in a line: Evaluation of brain penetration in mice (blood and brain concentration at brain Cmax). It counts as in vivo, mouse. The note with it: C57BL/6J mice; for Kp: male, C57BL/6J, mouse, brain/plasma, po. The procedure, abridged:
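Male C57BL/6J mice (8 weeks, n=3) dosed orally once at 1 […] mg/kg; plasma and brain collected at 0.25, 0.5, 1, 2, 4 and 8 h. Compound extracted with acetonitrile from brain homogenate and plasma, quantified by LC/MS/MS.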

The subject of another data set is mouse cuprizone model. As to the kind of experiment: Myelin regeneration promoting action in mouse cuprizone model (LFB staining of corpus callosum). It counts as in vivo. The note with it: 4 weeks after 6 weeks cuprizone diet, untreated = 100%. From the text: C57BL/6J mice (8 weeks old, male) were fed a diet containing 0.3% cuprizone (bis(cyclohexanone)oxaldihydrazone) (Research Diets, Inc. #D17042709) for 6 weeks to induce demyelination. Subsequently, the mice were divided into groups of 8 mice based on the body weight, the diet was switched to a cuprizone-free diet (Research Diets, Inc. #D10001), and administration of the test compound or vehicle was started. […] After administration of 4 weeks, the mice were euthanized, perfused with a 4% paraformaldehyde solution, and then brain sampling was performed. The brain sample obtained was embedded in paraffin to prepare a coronal section specimen at Bregma+1. The specimen was stained with Luxor Fast Blue (LFB) to visualize the myelin sheath, and images were acquired using a fluorescence microscope (KEYENCE #BZ-X710). The corpus callosum area and the LFB staining positive area in the corpus callosum of the obtained pathological specimen image were measured using an image analysis application (KEYENCE #BZ-H3C/BZ-H3XD), and the ratio (LFB staining positive area in the corpus callosum/corpus callosum area) was calculated. The intact group is a non-pathogenic group, and the […] control group were sampled after feeding the diet containing 0.3% cuprizone for 6 weeks.
In the table, the ratio of LFB staining positive area in the corpus callosum/corpus callosum area of the untreated group, fed with the cuprizone-free diet for 6 weeks, was regarded as 100%. As a result, the control group, fed with the cuprizone-containing diet for 6 weeks, decreased the ratio to 23.6%, and was confirmed to progress demyelination. The group, in which the cuprizone-containing diet was fed for 6 weeks and switched to the cuprizone-free diet, and the vehicle was administered, improved the ratio of area of LFB staining positive/area of corpus callosum to 50.1%. […] In addition, GSK239512 described in WO2013/107336 pamphlet was evaluated in the test to show the ratio of LFB staining positive area/corpus callosum area of 45.8%, in which no demyelination regeneration promoting action was shown as compared with the vehicle-administered group.

The next data set addresses T1, human VDR (Homo sapiens, UniProt P11473).
T1 sequence (P11473 1-427): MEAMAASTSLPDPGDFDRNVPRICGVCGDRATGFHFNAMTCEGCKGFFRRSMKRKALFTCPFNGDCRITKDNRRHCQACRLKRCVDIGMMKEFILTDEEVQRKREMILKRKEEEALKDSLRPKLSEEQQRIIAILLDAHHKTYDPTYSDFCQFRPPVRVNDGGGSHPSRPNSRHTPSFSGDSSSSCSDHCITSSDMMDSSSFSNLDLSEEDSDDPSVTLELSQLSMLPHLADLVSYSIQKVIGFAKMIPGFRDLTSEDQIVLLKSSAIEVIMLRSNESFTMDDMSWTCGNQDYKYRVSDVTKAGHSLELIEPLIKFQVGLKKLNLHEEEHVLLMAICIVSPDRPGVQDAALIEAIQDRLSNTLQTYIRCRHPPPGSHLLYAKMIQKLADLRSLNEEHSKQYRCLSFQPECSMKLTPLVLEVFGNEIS
T1 sequence (P19793 1-462 partner): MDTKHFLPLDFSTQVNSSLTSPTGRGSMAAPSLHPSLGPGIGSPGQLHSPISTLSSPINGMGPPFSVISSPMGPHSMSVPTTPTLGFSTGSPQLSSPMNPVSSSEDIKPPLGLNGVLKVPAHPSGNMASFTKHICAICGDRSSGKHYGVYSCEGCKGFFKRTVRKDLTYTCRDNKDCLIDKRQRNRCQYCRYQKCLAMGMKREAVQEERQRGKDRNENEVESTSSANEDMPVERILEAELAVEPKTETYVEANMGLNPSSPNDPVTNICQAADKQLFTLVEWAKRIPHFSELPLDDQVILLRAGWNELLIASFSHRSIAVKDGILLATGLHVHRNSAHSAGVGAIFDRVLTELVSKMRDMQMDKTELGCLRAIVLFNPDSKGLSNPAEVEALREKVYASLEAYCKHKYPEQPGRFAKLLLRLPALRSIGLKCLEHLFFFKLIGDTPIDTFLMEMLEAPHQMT
Kind of data set: Evaluation of VDR transcription activity in human osteoblasts (HOS cells), luciferase reporter. The note with it: Activity (EC50, VDR transcription activity), HOS cells transfected with human VDR, human RXRα and DR3 luciferase reporter; 21 hours.

The test system of data set [3] is rat oligodendrocyte progenitor cells. As to the kind of experiment: Promotive activity of rat oligodendrocyte progenitor cell differentiation-1 (MBP gene expression, mRNA). It counts as cell-based. The note with it: 4 days. The procedure, abridged:
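Primary OPCs from 1-day-old SD rat forebrain, isolated by shaking off mixed glial cultures and seeded at 2×10^3 cells/well in B27/CNTF (10 ng/mL) differentiation medium with compound. MBP mRNA measured by one-step TaqMan real-time PCR and expressed as MBP/β-actin ratio.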

For data set [4], the system named is oligodendrocyte progenitor cells derived from VDR knockout mice. Kind of data set: Oligodendrocyte progenitor cell differentiation using VDR knockout mice (MBP immunostaining). The note with it: 1000 nM, 4 days, VDR KO mouse OPC. It counts as cell-based. On the procedure: The promotive activity of oligodendrocyte progenitor cell (OPC) differentiation of the vitamin D derivatives was evaluated by using oligodendrocyte progenitor cells derived from VDR knockout mice. (1) Collection of Neural Stem Cells from VDR KO Mouse […]
The oligodendrocyte progenitor cells derived from VDR KO mouse prepared were suspended in oligodendrocyte progenitor cell differentiation medium (2% B27 (Thermo Fisher Scientific #17504-044)/1% penicillin-streptomycin (Invitrogen #15140-122)/10 ng/mL CNTF (PeproTech #AF-450-13)/DMEM/F-12, no glutamine (Gibco #21331-020)), and were seeded on a 96-well plate coated with poly-L-ornithine (FUJIFILM Wako Pure Chemical Corporation #163-27421) under the condition of 2.0×10^4 cells/well. […] Subsequently, images of each well were acquired using a fluorescence microscope (KEYENCE CORPORATION #BZ-X800), the number of MBP-positive cells and Hoechst 33342-positive cells (total cells) were measured using an image analysis application (KEYENCE CORPORATION #BZ-X800 Analyzer), and then the ratio of number of MBP-positive cells/number of Hoechst33342-positive cells (total cells) was calculated, and then the ratio of those to the DMSO group was calculated as a result. […]

Data set [5] in a line: Evaluation of calcium increasing action in normal mice (serum calcium). The note with it: for Serum calcium concentration: repeated oral once a day, 2 weeks, C57BL/6J mice; for Calcium concentration Fluctuation range: vs vehicle 8.9 mg/dL. It counts as in vivo, mouse.
Protocol: After acclimatizing C57BL/6J mice (7 weeks old, male) for 1 week, the mice were divided into groups of 5 mice based on the body weight, and administration of the compound or vehicle was started. The administration solution used was a compound (in ethanol) or ethanol diluted 100-fold with 0.1% Trion X-100 (SIGMA #X100-100ML)/saline, and the repeated oral administration at once a day was performed. After administration of 2 weeks, euthanasia was performed by collecting all blood under general anesthesia.
Where [6] appears, read: 1 mg/kg, 1 mg/kg single oral dose, read-out: Concentration in brain/in blood ratio at brain Cmax.
Where [7] appears, read: 0.2 mg/kg single oral dose, n=3.

For `C[C@H](CN1CC[C@@H](C(C)(F)F)C1)[C@H]1CC[C@H]2/C(=C/C=C3C[C@@H](O)C[C@H](O)C3)CCC[C@]12C` [Compound B034, (1R,3R)-5-(2-((1R,3aS,7aR,E)-1-((S)-1-((R)-3-(1,1-difluoroethyl)pyrrolidin-1-yl)propan-2-yl)-7a-methyloctahydro-4H-inden-4-ylidene)ethylidene)cyclohexane-1,3-diol], in data set [1] (Test 1), the “Mean (number of MBP-positive cells/number of Hoechst33342-positive cells)” value was 0.57. For the same molecule, in data set [2] (1 mg/kg single oral dose, n=3), the “Concentration in blood (mean ± SD) at brain Cmax” value was 251 ± 9 nM and the “Concentration in brain (mean ± SD) at brain Cmax” value turned out to be 562 ± 50 pmol/g. Also, the Kp in data set [2] (setting [6]) is 2.24. In the data set on mouse cuprizone model (6 μg/kg oral once a day), the “Ratio (%): area of LFB staining positive/area of corpus callosum, mean” value is on record as 88.1%.

Consider `C[C@H](CN1CC[C@@H](CC(F)F)C1)[C@H]1CC[C@H]2/C(=C/C=C3C[C@@H](O)C[C@H](O)C3)CCC[C@]12C` [Compound B043, (1R,3R)-5-(2-((1R,3aS,7aR,E)-1-((S)-1-((S)-3-(2,2-difluoroethyl)pyrrolidin-1-yl)propan-2-yl)-7a-methyloctahydro-4H-inden-4-ylidene)ethylidene)cyclohexane-1,3-diol], for which, in data set [2] (1 mg/kg single oral dose, n=3), the “Concentration in blood (mean ± SD) at brain Cmax” value is 74 ± 1 nM and the “Concentration in brain (mean ± SD) at brain Cmax” value was 80 ± 9 pmol/g. In addition, the Kp in data set [2] (setting [6]) worked out at 1.08. For the same molecule, the “Ratio (%): area of LFB staining positive/area of corpus callosum, mean” value with mouse cuprizone model (2 μg/kg oral once a day) is 84.9%. The same molecule yielded an EC50 on human VDR of 10 to 100 nM.

As for `O=C1CCCN1c1ccc(Oc2ccc3c(c2)CCN(C2CCC2)CC3)nc1` [GSK239512, reference compound], the “enhancement in the MBP gene expression compared with the wells added with DMSO” value in data set [3] (1 μM) was determined as 1.8 times. Also, the activation at 1 µM in data set [3] (Rattus norvegicus, Oligodendrocyte progenitor cell, 96 h, read-out: promotive activity at T3 base (MBP gene expression; DMSO 0%, T3 100%), MBP/β actin mRNA) worked out at 18%. For the same molecule, the “Ratio (%): area of LFB staining positive/area of corpus callosum, mean” value in the data set on mouse cuprizone model (10 mg/kg oral once a day) came out at 45.8%.

In the case of `C[C@H](CN1CCOC[C@H]1C)[C@H]1CC[C@H]2/C(=C/C=C3C[C@@H](O)C[C@H](O)C3)CCC[C@]12C` [Compound G005, (1R,3R)-5-(2-((1R,3aS,7aR,E)-7a-methyl-1-((S)-1-((R)-3-methylmorpholino)propan-2-yl)octahydro-4H-inden-4-ylidene)ethylidene)cyclohexane-1,3-diol], the “Mean (number of MBP-positive cells/number of Hoechst33342-positive cells)” value in data set [1] (Test 3) is on record as 0.34. Besides, the “Mean (ratio MBP-positive cells/Hoechst33342-positive cells, relative to the DMSO group = 100.0)” value in data set [4] was found to be 215.1. For the same molecule, the Serum calcium concentration in data set [5] (20 μg/kg) was 9.1 mg/dL; in data set [5] (60 μg/kg), 9.1 mg/dL; in data set [5] (200 μg/kg) it was 9.0 mg/dL. Moreover, the “Calcium concentration Fluctuation range” value in data set [5] (20 μg/kg) was 0.2 mg/dL; in data set [5] (60 μg/kg) it was 0.2 mg/dL; in data set [5] (200 μg/kg), 0.1 mg/dL. In addition, in data set [2] (setting [7]), the “Concentration in blood at brain Cmax” value is on record as 84.1 ± 9.7 nM. The “Concentration in brain at brain Cmax” value in data set [2] (setting [7]) is reported as 140.8 ± 17.6 pmol/g. The Kp in data set [2] (0.2 mg/kg, 0.2 mg/kg single oral dose, read-out: Concentration ratio in brain/in blood at brain Cmax) turned out to be 1.67.
